Data reported in PMC5974779, “Prediction of Drug-Induced Hepatotoxicity Using Long-Term Stable Primary Hepatic 3D Spheroid Cultures in Chemically Defined Conditions” (Toxicological Sciences, 2018).
Where two headings read alike, the source gives them in different places.

What was measured:
clinical DILI in man = conditions: cited from earlier work
[1] = therapeutic total cmax; ref PMID; cited from earlier work
[2] = ref DrugBank and Prescribers' Digital Reference database; cited from earlier work
[3] = system: primary human hepatocytes (PHH) 3D spheroids
PHH 2D sandwich cultures = conditions: cited from earlier work
[4] = DILI classification score, ref Suzuki et al. (2010)
[5] = FDA drug labeling DILI concern, ref Chen et al., 2011
[6] = FDA drug labeling DILI score, ref Chen et al., 2011
[7] = clinical DILI classification in man (POS/NEG)
[8] = clinical DILI classification used in this study, Supplementary Table 2, ref Chen et al., 2011, Guo et al., 2005, O'Brien et al., 2006, Sakatis et al., 2012, Suzuki et al., 2010, Xu et al., 2008
[9] = clinical DILI classification, Supplementary Table 1, ref Chen et al., 2011, Guo et al., 2005, O'Brien et al., 2006, Sakatis et al., 2012, Suzuki et al., 2010, Xu et al., 2008
[10] = reported pattern of liver damage, Supplementary Table 2, ref literature
[11] = clinical DILI classification, ref Xu et al. (2008)
[12] = clinical hepatotoxicity classification, ref O'Brien et al. (2003)

SMILES	Suzuki et al. (2010) (clinical DILI in man; [4])	FDA (Severity) (clinical DILI in man; [5])	FDA (0-8) (clinical DILI in man; [6])	DILI in vivo (clinical DILI in man; [7])	Classified as (clinical DILI in man; [8])	DILI in vivo (clinical DILI in man; [9])	Type of DILI (clinical DILI in man; [10])	Cmax [1] [nM]	Extent of hepatic metabolism [2]	Chemically defined spheroids (this study) 20x [3]	Classified as (clinical DILI in man; in vivo)	Clinical DILI class (panel heading of Figure 4) (clinical DILI in man; in vivo)	DILI in vivo (clinical DILI in man; in vivo)	Type of DILI (clinical DILI in man; in vivo)	FDA (0-8) (clinical DILI in man; in vivo)	also measured
CCCN(CCC)C(=O)Cc1c(-c2ccc(Cl)cc2)nc2ccc(Cl)cn12 [Alpidem]	3	most DILI concern	Withdrawn	POS	POS	POS	Hepatocellular injury	670	Extensive	Positive	–	–	–	–	–	Sakatis et al. (2012) (clinical DILI in man; clinical hepatotoxicity classification, ref Sakatis et al. (2012)): Hepatotoxic
CCN(CC)Cc1cc(Nc2ccnc3cc(Cl)ccc23)ccc1O [Amodiaquine]	–	–	–	–	–	–	–	1910	Extensive	Positive	POS	Severe DILI	POS	Hepatocellular injury	–	Clinical DILI classification (Figure 5) (clinical DILI in man; in vivo): DILI positive; hepatotoxicity evaluation in CD-spheroids ([3]; human, 14 days): highly toxic at 5× and 20× of therapeutic serum levels
CCCCNc1cc(C(=O)O)cc(S(N)(=O)=O)c1Oc1ccccc1 [Bumetanide]	–	–	–	–	–	–	–	80	Moderate	Negative	POS	High DILI concern	POS	–	3	Xu et al. (2008) (clinical DILI in man; in vivo): Positive
CN1CCN(C2=Nc3cc(Cl)ccc3Nc3ccccc32)CC1 [Clozapine]	–	–	–	–	–	–	–	2450	Extensive	–	–	–	–	–	–	–
CN(C)/N=N/c1[nH]cnc1C(N)=O [Dacarbazine]	–	–	–	–	–	–	–	16600	Extensive	Positive	POS	Severe DILI	POS	Hepatocellular injury	6	FDA (Severity) (clinical DILI in man; in vivo): most DILI concern; Guo et al. (2005) (clinical DILI in man; in vivo): 3; Sakatis et al. (2012) (clinical DILI in man; in vivo): Hepatotoxic
NNc1nnc(NN)c2ccccc12 [Dihydralazine]	–	–	–	POS	POS	POS	Hepatocellular injury or Cholestatic injury	2630	Moderate	Positive	–	–	–	–	–	–
CC(C)OC(=O)C(C)(C)Oc1ccc(C(=O)c2ccc(Cl)cc2)cc1 [Fenofibrate]	–	–	–	–	–	–	–	12100	Extensive	Positive	POS	High DILI concern	POS	Hepatocellular injury, Cholestatic injury or Mixed hepatitis	3	FDA (Severity) (clinical DILI in man; in vivo): less DILI concern; O'Brien et al. (2003) (clinical DILI in man; in vivo): Moderately; Sakatis et al. (2012) (clinical DILI in man; in vivo): Hepatotoxic; Suzuki et al. (2010) (clinical DILI in man; in vivo): 1; Xu et al. (2008) (clinical DILI in man; in vivo): Positive
OC(Cn1cncn1)(Cn1cncn1)c1ccc(F)cc1F [Fluconazole]	–	–	–	–	–	–	–	8820	Minimal	Negative	POS	Severe DILI	POS	Hepatocellular injury	8	FDA (Severity) (clinical DILI in man; in vivo): most DILI concern; Guo et al. (2005) (clinical DILI in man; in vivo): 3; Sakatis et al. (2012) (clinical DILI in man; in vivo): Hepatotoxic; Suzuki et al. (2010) (clinical DILI in man; in vivo): 1; Xu et al. (2008) (clinical DILI in man; in vivo): Positive
CC(C)NNC(=O)c1ccncc1 [Iproniazid]	3	most DILI concern	Withdrawn	POS	POS	POS	Hepatocellular injury	40	Extensive	Negative	–	–	–	–	–	Sakatis et al. (2012) (clinical DILI in man; in vivo): Hepatotoxic; hepatotoxicity evaluation in CD-spheroids [3]: predicted to be DILI negative
O=C(c1ccccc1)c1ccc2n1CCC2C(=O)O (stereo not drawn) [Ketorolac]	1	less DILI concern	3	POS	POS	POS	–	2390	Moderate	Positive	–	–	–	–	–	Guo et al. (2005) (clinical DILI in man; DILI classification score, ref Guo et al. (2005)): 2; Xu et al. (2008) (clinical DILI in man; [11]): Positive; O'Brien et al. (2003) (clinical DILI in man; [12]): Severely
CN(C)CCN(Cc1cccs1)c1ccccn1 [Methapyrilene]	–	–	–	–	–	–	–	170	Moderate	–	NEG	DILI negative	NEG	Non-hepatotoxic	–	–
CN1Cc2c(N)cccc2C(c2ccccc2)C1 (stereo not drawn) [Nomifensine]	3	most DILI concern	Withdrawn	POS	POS	POS	Cholestatic injury	5640	Moderate	Positive	–	–	–	–	–	Xu et al. (2008) (clinical DILI in man; [11]): Positive
Fc1ccc([C@@H]2CCNC[C@H]2COc2ccc3c(c2)OCO3)cc1 [Paroxetine]	2	less DILI concern	8	NEG	NEG	NEG	Non-hepatotoxic	50	Extensive	Negative	–	–	–	–	–	Xu et al. (2008) (clinical DILI in man; [11]): Negative; O'Brien et al. (2003) (clinical DILI in man; [12]): Moderately
CC(C)NCC(O)COc1cccc2ccccc12 (stereo not drawn) [Propranolol]	–	–	–	–	–	–	–	–	Extensive	–	–	–	–	–	–	–
CC/C(=C(\c1ccccc1)c1ccc(OCCN(C)C)cc1)c1ccccc1 [Tamoxifen]	–	–	–	–	–	–	–	160	Extensive	–	–	–	–	–	–	–
CN1CCN(CCCN2c3ccccc3Sc3ccc(C(F)(F)F)cc32)CC1 [Trifluoperazine]	–	–	–	–	–	–	–	4.5	–	Negative	POS	High DILI concern	POS	Cholestatic injury or Mixed hepatitis	2	FDA (Severity) (clinical DILI in man; in vivo): less DILI concern; O'Brien et al. (2003) (clinical DILI in man; in vivo): Moderately; Xu et al. (2008) (clinical DILI in man; in vivo): Positive; hepatotoxicity detection in 2D sandwich cultures of PHH (PHH 2D sandwich cultures; 100× cmax, 24 h, high content imaging, ref Xu et al., 2008): flagged as hepatotoxic; 2Dsw (Xu 2008) 100x (PHH 2D sandwich cultures; PHH 2D sandwich cultures, 100x Cmax, ref Xu 2008): Positive; reactive oxygen species levels in 2D sandwich cultures of PHH (PHH 2D sandwich cultures; ref Xu et al., 2008): only slight increases in reactive oxygen species levels; hepatotoxicity evaluation in CD-spheroids [3]: predicted to be DILI negative
